Patent US11401253B2, “16-methyl-oxacyclohexadecan-2-one and 16-methyl-azacyclohexadecan-2-one derivatives as antimicrobial agents” (THE UNIVERSITY OF MONTANA, priority 2017, dated 2022)
≈ marks a conversion by molar mass, not a printed value. Where “and” joins values, the source holds several entries; their conditions need not be identical. Equal values may be shown once. Read-outs that look alike come from different tables or passages of the source.

Key:
Candida glabrata = experiment: Antibiotic testing (MIC), Candida glabrata; assay type: cell-based; conditions: Nakaseomyces glabratus; growth inhibition ≥90%; read-out: minimum inhibitory concentration, Candida glabrata
Enterococcus faecalis = experiment: Antibiotic testing (MIC), Enterococcus faecalis; assay type: cell-based; conditions: growth inhibition ≥90%, read-out: minimum inhibitory concentration, Enterococcus faecalis
S. aureus CAIRD148 = experiment: Antibiotic testing, methicillin-resistant S. aureus CAIRD148; assay type: cell-based; conditions: methicillin-resistant strain; for MIC: Staphylococcus aureus, CAIRD148
Source text: (§1) Both the methyl ester and the diacetate derivatives of BPL 76 slightly less but still very strong activity against the same four MRSA strains (Table 11). The activities of compounds BPL 76 and BPL 81 were compared to several known antibiotics against three methicillin-resistant strains of S. aureus [FIG. 6, comparative data provided by Hartford Hospital, Center for Anti-Infective Research and Development (CAIRD)].

S. aureus CAIRD116 = experiment: Antibiotic testing, methicillin-resistant S. aureus CAIRD116; assay type: cell-based; conditions: methicillin-resistant strain; for MIC: Staphylococcus aureus, CAIRD116
Source text: as §1

Bacillus subtilis = experiment: Antibiotic testing (MIC), Bacillus subtilis; assay type: cell-based; conditions: growth inhibition ≥90%, read-out: minimum inhibitory concentration, Bacillus subtilis
Vero cell = experiment: Cytotoxicity (MTS), Vero cells; assay type: cell-based, monkey; conditions: Primates, 72 hours exposure
S. aureus (NE277) = experiment: Antibiotic testing, methicillin-resistant S. aureus NE277; assay type: cell-based; conditions: for MIC: Staphylococcus aureus, read-out: antibiotic testing data (MIC), S. aureus (NE277); for antibiotic testing data (MIC), S. aureus (NE277): methicillin-resistant strain
Source text: as §1

C. albicans = experiment: Antibiotic testing (MIC), C. albicans; assay type: cell-based; conditions: Candida albicans; growth inhibition ≥90%; read-out: minimum inhibitory concentration, C. albicans
S. aureus CAIRD142 = experiment: Antibiotic testing, methicillin-resistant S. aureus CAIRD142; assay type: cell-based; conditions: methicillin-resistant strain; for MIC: Staphylococcus aureus, CAIRD142
Source text: as §1

[1] = test system: non-replicating persistence Mycobacterium tuberculosis (NRP-TB); experiment: Low oxygen recovery assay (LORA), non-replicating persistence Mtb; assay type: cell-based; conditions: for MIC: Mycobacterium tuberculosis, non-replicating persistence, hypoxic conditions, read-out: MIC, LORA
P. aeruginosa = experiment: Antibiotic testing (MIC), gram negative P. aeruginosa; assay type: cell-based
Protocol: (§2) None of this collection of compounds were active against Gram-negative bacteria
(§3) Additionally, BPL 76 and derivatives were tested against a panel of gram negative bacteria including K. pneumonia, P. aeruginosa and E. coli (Table 12).

J774 = experiment: Cytotoxicity (MTS), J774 cells; assay type: cell-based, murine; conditions: Mus musculus, 72 hours exposure
[2] = test system: Staphylococcus aureus (13709); experiment: Antibiotic testing (MIC), S. aureus 13709; assay type: cell-based; conditions: growth inhibition ≥90% relative to drug-free controls, read-out: minimum inhibitory concentration, Staphylococcus aureus (13709)
[3] = test system: Mycobacterium tuberculosis; experiment: microbe, parasite or virus in culture; conditions: read-out: MIC, MABA
HepG2 = experiment: Cytotoxicity (MTS), HepG2 cells; assay type: cell-based; conditions: Homo sapiens, 72 hours exposure
B. anthracis = experiment: microbe, parasite or virus in culture; assay type: cell-based; conditions: Bacillus anthracis, read-out: minimum inhibitory concentration, B. anthracis
E. coli (25922) = experiment: Antibiotic testing (MIC), gram negative E. coli; assay type: cell-based
Protocol: as §2, §3

K. pneumoniae (10031) = experiment: Antibiotic testing (MIC), gram negative K. pneumoniae; assay type: cell-based
Protocol: as §2, §3

Streptococcus pyogenes = experiment: Antibiotic testing (MIC), Streptococcus pyogenes; assay type: cell-based; conditions: growth inhibition ≥90%, read-out: minimum inhibitory concentration, Streptococcus pyogenes
[4] = test system: Mycobacterium tuberculosis
MMP-3 = target: T1, MMP-3 (Homo sapiens, UniProt P08254); experiment: MMP-3 enzyme inhibition assay; assay type: biochemical
T1 construct: purchased BioMol
Protocol: The two fungi were also co-cultured under controlled conditions. P. fuscum was grown in pure culture in potato dextrose broth (10×400 mL). After 24 h, an agar cube (8 mm^3) impregnated with P. camembertii/clavigerum mycelium was added to each flask and the resulting co-culture was shaken for 6 more days (200 rpm, room temperature). At time of harvest, methanol (50 mL/flask) was added, the mycelia were removed by gravity filtration and the broth was extracted with chloroform (3×2 L). The chloroform was removed in vacuo to yield 663 mg of crude extract. The crude extract was verified to be active in the MMP-3, caspase-1 and caspase-3 enzyme inhibition assays. Enzyme inhibitory activity was determined using specific BioMol enzyme inhibition assay kits for drug discovery as described in Stierle, A; Stierle, D. The Berkeleylactones, Antibiotic Macrolides from Fungal Coculture. J. Nat. Prod. 80, 4, 1150-1160.

GFP synthesis = experiment: Cell-free translation assay with GFP reporter; assay type: biochemical; conditions: 50 μM, 37° C., readings for 2 hr
Protocol: Further assessment of the effect of BPL76 on protein translation was done using a cell-free translation assay. The plasmid pY71-sfGFP^55 (5 ng) was translated in the PUREexpress in vitro protein synthesis system (New England Biolabs). The final concentrations of erythromycin, josamycin and tylosin in the translation reactions were 50 μM. The reactions were incubated at 37° C. and fluorescence readings (excitation: 488 nm, emission, 520 nm) were taken every 20 min for 2 hr.

[5] = Pseudomonas aeruginosa; read-out: MIC, P. aeruginosa
[6] = Escherichia coli; read-out: MIC, E. coli (25922)
[7] = Klebsiella pneumoniae; read-out: MIC, K. pneumoniae (10031)

T1 sequence (P08254 100-477): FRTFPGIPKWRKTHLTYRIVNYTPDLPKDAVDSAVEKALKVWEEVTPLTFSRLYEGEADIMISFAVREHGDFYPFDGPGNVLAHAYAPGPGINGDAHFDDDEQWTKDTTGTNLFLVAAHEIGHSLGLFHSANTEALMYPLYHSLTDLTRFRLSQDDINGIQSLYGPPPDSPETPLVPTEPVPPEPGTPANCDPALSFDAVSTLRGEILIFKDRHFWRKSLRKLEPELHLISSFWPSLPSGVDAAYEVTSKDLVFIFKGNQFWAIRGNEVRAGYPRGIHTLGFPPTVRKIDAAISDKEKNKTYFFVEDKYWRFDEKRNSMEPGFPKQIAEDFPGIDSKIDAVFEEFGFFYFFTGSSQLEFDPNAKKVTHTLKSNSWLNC

| SMILES | MIC (Candida glabrata) | MIC (S. aureus CAIRD148) | MIC (S. aureus CAIRD116) | MIC (Bacillus subtilis) | MIC (S. aureus (NE277)) | MIC (C. albicans) | MIC (S. aureus CAIRD142) | MIC (P. aeruginosa; [5]) | MIC [2] | MIC (B. anthracis) | MIC (E. coli (25922); [6]) | MIC (K. pneumoniae (10031); [7]) | MIC (Streptococcus pyogenes) | inhibition of GFP synthesis and corresponding fluorescence (GFP synthesis) | other results |
| --- | --- | --- | --- | --- | --- | --- | --- | --- | --- | --- | --- | --- | --- | --- | --- |
| COC(=O)[C@H](O)CS[C@@H]1CC(=O)[C@@H](O)CCCCCCCCC[C@@H](C)OC1=O [BPL 76-Me ester, methyl (S)-2-hydroxy-3-(((3R,6S,16R)-6-hydroxy-16-methyl-2,5-dioxooxacyclohexadecan-3-yl)thio)propanoate] | 7 µg/mL (≈ 16.7 µM) | 2 µg/mL (≈ 4.78 µM) | 2 µg/mL (≈ 4.78 µM) | 3 µg/mL (≈ 7.17 µM) | 2 µg/mL (≈ 4.78 µM) | 13 µg/mL (≈ 31.1 µM) | 2 µg/mL (≈ 4.78 µM) | > 250 µM | 1 µg/mL (≈ 2.39 µM) | 1 µg/mL (≈ 2.39 µM) | 125 µM and 52.3 µg/mL | 250 µM and 105 µg/mL | 3 µg/mL (≈ 7.17 µM) | – | MIC (Enterococcus faecalis): 3 µg/mL (≈ 7.17 µM); IC50 (Vero cell): 74 µg/mL (≈ 177 µM); MIC [1]: 19 µg/mL (≈ 45.4 µM); IC50 (J774): 38 µg/mL (≈ 90.8 µM); MIC [3]: 32 µg/mL (≈ 76.5 µM); IC50 (HepG2): 55.6 µg/mL (≈ 133 µM) |
| COC(=O)[C@@H](CS[C@@H]1CC(=O)[C@@H](OC(C)=O)CCCCCCCCC[C@@H](C)OC1=O)OC(C)=O [BPL 76-diacetate, methyl (S)-2-acetoxy-3-(((3R,6S,16R)-6-acetoxy-16-methyl-2,5-dioxooxacyclohexadecan-3-yl)thio)propanoate] | > 125 µg/mL | 4 µg/mL (≈ 7.96 µM) | 4 µg/mL (≈ 7.96 µM) | 7 µg/mL (≈ 13.9 µM) | 4 µg/mL (≈ 7.96 µM) | > 125 µg/mL | 7 µg/mL (≈ 13.9 µM) | > 125 µM | 2 µg/mL (≈ 3.98 µM) | 4 µg/mL (≈ 7.96 µM) | > 125 µM | > 125 µM | 15 µg/mL (≈ 29.8 µM) | – | MIC (Enterococcus faecalis): 15 µg/mL (≈ 29.8 µM) |
| C[C@@H]1CCCCCCCCC[C@H](OC(=O)CCC(=O)O)[C@H](O)/C=C/C(=O)O1 [BPL 84, 4-(((5R,6S,16R,E)-5-hydroxy-16-methyl-2-oxooxacyclohexadec-3-en-6-yl)oxy)-4-oxobutanoic acid] | > 90 µg/mL | > 90 µg/mL | > 90 µg/mL | > 90 µg/mL | > 90 µg/mL | > 90 µg/mL | > 90 µg/mL | > 250 µM | 45 µg/mL (≈ 117 µM) | > 90 µg/mL | > 250 µM | > 250 µM | > 90 µg/mL | – | antibiotic testing data (MIC), S. aureus CAIRD148 (S. aureus CAIRD148): >250 µM; antibiotic testing data (MIC), S. aureus CAIRD116 (S. aureus CAIRD116): >250 µM; activity against replicating Mtb (in words) ([4]; MABA): not active; IC50 (Vero cell): > 100 µg/mL; antibiotic testing data (MIC), S. aureus (NE277) (S. aureus (NE277)): >250 µM; antibiotic testing data (MIC), S. aureus CAIRD142 (S. aureus CAIRD142): >250 µM; activity against non-replicating Mtb (in words) ([1]; LORA): not active; MIC [1]: > 100 µg/mL; IC50 (J774): > 100 µg/mL; MIC [3]: > 100 µg/mL; IC50 (HepG2): > 100 µg/mL; MMP-3 inhibition (MMP-3): weaker inhibitors |
| C[C@H]1OC(=O)/C=C/[C@@H](O)[C@@H](OC(=O)CCC(=O)O)CCCCCCCC[C@@H]1O [BPL 86, 4-(((5R,6S,15 S,16R,E)-5,15-dihydroxy-16-methyl-2-oxooxacyclohexadec-3-en-6-yl)oxy)-4-oxobutanoic acid] | > 50 µg/mL | 47 µg/mL (≈ 117 µM) | 47 µg/mL (≈ 117 µM) | > 50 µg/mL | 47 µg/mL (≈ 117 µM) | > 50 µg/mL | 47 µg/mL (≈ 117 µM) | – | 24 µg/mL (≈ 59.9 µM) | 24 µg/mL (≈ 59.9 µM) | – | – | > 50 µg/mL | – | antibiotic testing data (MIC), S. aureus CAIRD148 (S. aureus CAIRD148): 125 µM; antibiotic testing data (MIC), S. aureus CAIRD116 (S. aureus CAIRD116): 125 µM; antibiotic testing data (MIC), S. aureus (NE277) (S. aureus (NE277)): 125 µM; antibiotic testing data (MIC), S. aureus CAIRD142 (S. aureus CAIRD142): 125 µM; MIC (P. aeruginosa; Pseudomonas aeruginosa, read-out: MIC, P. aeruginosa): > 125 µM; MMP-3 inhibition (MMP-3): weaker inhibitors; MIC (E. coli (25922); Escherichia coli, read-out: MIC, E. coli (25922)): > 125 µM; MIC (K. pneumoniae (10031); Klebsiella pneumoniae, read-out: MIC, K. pneumoniae (10031)): > 125 µM |
| COc1c(N2C[C@@H]3CCCN[C@@H]3C2)c(F)cc2c(=O)c(C(=O)O)cn(C3CC3)c12 [MOX - Moxifloxicin, Moxifloxicin, reference compound] | – | – | – | – | – | – | – | – | – | – | – | – | – | – | MIC, MABA ([4]; normal (replicating) conditions, known antibiotics): 0.2 µM (≈ 0.0803 µg/mL) |
| CC[C@H]1OC(=O)[C@H](C)[C@@H](O[C@H]2C[C@@](C)(OC)[C@@H](O)[C@H](C)O2)[C@H](C)[C@@H](O[C@@H]2O[C@H](C)C[C@H](N(C)C)[C@H]2O)[C@](C)(O)C[C@@H](C)C(=O)[C@H](C)[C@@H](O)[C@]1(C)O [erythromycin] | – | – | – | – | – | – | – | – | – | – | – | – | – | effectively inhibited | – |
| CO[C@@H]1[C@@H](O[C@@H]2O[C@H](C)[C@@H](O[C@H]3C[C@@](C)(O)[C@@H](OC(=O)CC(C)C)[C@H](C)O3)[C@H](N(C)C)[C@H]2O)[C@@H](CC=O)C[C@@H](C)[C@@H](O)/C=C/C=C/C[C@@H](C)OC(=O)C[C@H]1OC(C)=O [josamycin] | – | – | – | – | – | – | – | – | – | – | – | – | – | effectively inhibited | – |
| CC[C@H]1OC(=O)C[C@@H](O)[C@H](C)[C@@H](O[C@@H]2O[C@H](C)[C@@H](O[C@H]3C[C@@](C)(O)[C@@H](O)[C@H](C)O3)[C@H](N(C)C)[C@H]2O)[C@@H](CC=O)C[C@@H](C)C(=O)/C=C/C(C)=C/[C@@H]1CO[C@@H]1O[C@H](C)[C@@H](O)[C@@H](OC)[C@H]1OC [tylosin] | – | – | – | – | – | – | – | – | – | – | – | – | – | effectively inhibited | – |
